Assay [1] has as its target T1, WT TRPC6 (Homo sapiens, UniProt Q9Y210).
T1 construct: expressed in transfected cells; host or cells: HEK 293
T1 sequence (Q9Y210 1-931): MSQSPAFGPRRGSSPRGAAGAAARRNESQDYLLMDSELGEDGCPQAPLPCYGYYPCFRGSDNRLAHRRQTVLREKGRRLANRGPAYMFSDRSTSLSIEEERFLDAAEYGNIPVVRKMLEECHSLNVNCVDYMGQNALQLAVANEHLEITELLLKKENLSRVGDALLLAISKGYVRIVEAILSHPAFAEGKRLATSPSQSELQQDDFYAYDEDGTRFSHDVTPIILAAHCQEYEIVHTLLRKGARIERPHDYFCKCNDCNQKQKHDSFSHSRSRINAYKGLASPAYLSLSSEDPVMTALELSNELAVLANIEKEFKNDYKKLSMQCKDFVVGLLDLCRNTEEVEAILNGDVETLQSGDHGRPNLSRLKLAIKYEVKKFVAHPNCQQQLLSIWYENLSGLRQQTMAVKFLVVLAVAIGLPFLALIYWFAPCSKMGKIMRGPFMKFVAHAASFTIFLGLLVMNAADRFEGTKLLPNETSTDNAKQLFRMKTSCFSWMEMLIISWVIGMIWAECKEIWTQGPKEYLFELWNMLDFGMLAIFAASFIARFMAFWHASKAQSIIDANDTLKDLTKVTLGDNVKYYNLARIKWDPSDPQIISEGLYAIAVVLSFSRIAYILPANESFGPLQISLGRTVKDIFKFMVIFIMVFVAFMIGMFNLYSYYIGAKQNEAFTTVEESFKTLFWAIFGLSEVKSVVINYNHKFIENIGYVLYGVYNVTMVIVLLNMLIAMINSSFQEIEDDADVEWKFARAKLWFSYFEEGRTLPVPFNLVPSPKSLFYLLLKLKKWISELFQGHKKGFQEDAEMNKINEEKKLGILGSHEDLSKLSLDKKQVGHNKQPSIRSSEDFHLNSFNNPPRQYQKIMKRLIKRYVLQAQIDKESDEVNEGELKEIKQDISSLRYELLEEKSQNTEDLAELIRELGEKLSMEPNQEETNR
As to the kind of experiment: Fura-2 single cell imaging of divalent cations in HEK 293 cells transfected with WT TRPC6. In kind it is cell-based. The text has this: (§1) To determine the effect of the P112Q mutation on TRPC6 function, we studied HEK 293 cells (human kidney cells) transfected with mutant (TRPC6^P112Q) or wild-type (WT) TRPC6 (14). The WT TRPC6 was cloned from a human kidney cDNA library. […] Diacylglycerol (DAG) is a potent activator of TRPC6 (15). We therefore measured the intracellular calcium concentration ([Ca^+2]i) using Fura fluorescence in HEK 293 cells expressing either the WT or TRPC6^P112Q after exposure to the DAG analogue OAG (1-oleoyl-2-acetyl-sn-glycerol). OAG perfusion increased late Ca^+2 transients in cells transfected with WT TRPC6 as expected (FIG. 3A and FIG. 7).
(§2) Angiotensin II acting through its AT1 receptor plays a critical role in the generation of proteinuria and progression of kidney injury in a number of kidney diseases including FSGS (16). AT1 receptors, coupled to heterotrimeric G nucleotide-binding proteins, activate phospholipase C-beta isoforms that hydrolyze phosphatidylinositol 4,5-bisphosphate (PIP2). This triggers production of inositol 1,4,5-trisphosphate (InsP3) and diacylglycerol (DAG) releases internal calcium stores and activates Ca^+2 entry, respectively (17). We examined whether the P112Q mutation would affect angiotensin II-dependent (i.e., receptor-operated) calcium signaling. HEK 293 cells were co-transfected with the AT1 angiotensin receptor (AT-YFP) and either WT TRPC6 or TRPC6^P112Q. [Ca^+2]i changes were measured after exposure to angiotensin II (FIG. 3B and FIG. 8); similar to the OAG experiments, the peak angiotensin II-stimulated [Ca^+2]i was higher in cells expressing the mutant protein compared with WT controls ([Ca^2+]i TRPC6^P112Q=640±66 nM vs. [Ca^2+]i WT TRPC6=357±46 nM; p<0.05). To establish that the P112Q mutation is not isolated to TRPC6 channels, we introduced the analogous mutation into the TRPC3 channel.
(§3) HEK 293 cells were plated on glass bottom plates at near confluence. After 24 hours, the cells were transfected with plasmids in the presence of lipofectamine 2000 (Invitrogen). Here 3 μg of TRPC6 plasmid (WT or mutant) and 1 μg of ATR-YFP plasmid were incubated for 4 hours in Optimem 2000 media (Gibco) and then changed to 10% FBS/DMEM media. For biotinylation experiments, 24 hours after transfection with TRPC6-V5 and TRPC6^P112Q-V5 constructs, cells were washed with ice cold PBS and incubated with sulfo-NHS-SS-Biotin (2 mg/ml) (Pierce) for 30-min at 4° C. After 3 washes with PBS with 10 mM glycine, cells were incubated with RIPA lysis buffer for 30-min at 4° C. Lysates were passed through a 20 G and then 25 G needle for 25 passes. Samples were then collected by centrifuging at 20K G for 15-min at 4° C. Supernatants were then incubated overnight with streptavidin agaraose beads (Pierce), washed 3 times and then heated to 37° C. […]

Assay [2] concerns the target T2, TRPC6^P112Q (Homo sapiens, UniProt Q9Y210, P112Q).
T2 construct: expressed in transfected cells; host or cells: HEK 293
T2 sequence (Q9Y210 1-931 P112Q): T1 sequence (Q9Y210 1-931) with P112Q
As to the kind of experiment: Fura-2 single cell imaging of divalent cations in HEK 293 cells transfected with TRPC6^P112Q. In kind it is cell-based.
Excerpt: as §1, §2, §3

Where a chain is given by its changes, count along the chain named.

As for `CCCCCCCC/C=C\CCCCCCCC(=O)OC[C@H](CO)OC(C)=O` [OAG, 1-oleoyl-2-acetyl-sn-glycerol], the “Peak intracellular calcium concentration [Ca2+]i after OAG perfusion” value in assay [1] (HEK 293 cells transfected with WT TRPC6, 100 μM OAG, Fura fluorescence) worked out at 106 ± 15 nM; in assay [2] (HEK 293 cells transfected with TRPC6^P112Q, 100 μM OAG, Fura fluorescence), 181 ± 25 nM. Further, the “OAG-stimulated barium transients, ratio” value in assay [1] (HEK293 cells transfected with WT TRPC6, Fura-2, barium as surrogate for calcium) is reported as 0.49±0.18. Besides, the “OAG-stimulated barium transients, 4340/380 ratio” value in assay [2] (HEK293 cells transfected with TRPC6P112Q, Fura-2, barium as surrogate for calcium) was 1.30±0.7.

In the case of “angiotensin II: ligand acting through its AT1 receptor, used to stimulate receptor-operated calcium signaling (DRVYIHPF; Angiotensin-2; UniProt P01019 25-32, looked up)”, the “Peak angiotensin II-stimulated [Ca2+]i” value in assay [1] (HEK 293 cells co-transfected with AT1 receptor (AT-YFP) and WT TRPC6, angiotensin II 1 μM) is 357 ± 46 nM; in assay [2] (HEK 293 cells co-transfected with AT1 receptor (AT-YFP) and TRPC6^P112Q, angiotensin II 1 μM), 640 ± 66 nM. Besides, the “Duration of angiotensin II-induced barium signal” value in assay [1] (HEK 293 cells co-transfected with AT1 receptor and WT TRPC6) was 271 ± 121 s; in assay [2] (HEK 293 cells co-transfected with AT1 receptor and TRPC6^P112Q) it was 1054 ± 282 s.
